pIC50: −log10 of the molar value. Active and inactive are the calls of the source. The calls are words filed in the database; no cut-off is given here.
Experiments:
[1] = Induction of apoptosis in human GSC-3 cells assessed as early apoptotic cells at 10 uM incubated for 36 hrs by Annexin V-FITC/PI staining based flow cytometric analysis (reference value: 6.99%); assay type: functional
[2] = tested on: U-87 MG; assay: Cytotoxicity against human U-87 MG cells assessed as reduction in cell viability after 72 hrs by MTS assay; assay type: cell-based, U-87MG ATCC; conditions: Homo sapiens, U-87 MG
[3] = tested on: U-87 MG; assay: Cytotoxicity against human U-87 MG cells assessed as inhibition of cell growth at 20 uM after 5 days; assay type: cell-based; conditions: u-87mg atcc, 120 h, time 5 day
[4] = tested on: GSC-18; assay: Inhibition of colony formation in human GSC-18 cells assessed as decrease in number of tumor spheres at 15 uM after 2 weeks by crystal violet staining based assay; assay type: functional, cell-based
[5] = tested on: T98G; assay: Cytotoxicity against human T98G cells assessed as inhibition of cell growth at 20 uM after 5 days; assay type: cell-based; conditions: 120 h, time 5 day
[6] = Cytotoxicity against human GSC3 cells assessed as reduction in cell viability after 72 hrs by MTS assay; assay type: functional, cell-based; conditions: GSC-3, 72 h
[7] = tested on: GSC-18; assay: Inhibition of colony formation in human GSC-18 cells assessed as tumor spheres damage at 15 uM after 2 weeks by crystal violet staining based assay; assay type: functional, cell-based
[8] = tested on: T98G; assay: Inhibition of colony formation in human […] cells assessed as tumor spheres damage at 15 uM by crystal violet staining based assay; assay type: functional, cell-based
[9] = tested on: GSC-3; assay: Antiproliferative activity against human GSC-3 cells assessed as inhibition of cell growth at 15 uM after 48 hrs by BrdU incorporation assay; assay type: functional, cell-based
[10] = tested on: U-87 MG; assay: Inhibition of colony formation in human U-87 MG cells assessed as decrease in number of tumor spheres at 15 uM by crystal violet staining based assay; assay type: functional, cell-based; conditions: U-87MG ATCC
[11] = tested on: HUVEC; assay: Cytotoxicity against HUVEC assessed as inhibition of cell growth at 20 uM after 5 days; assay type: cell-based; conditions: human, 120 h, time 5 day
[12] = Induction of apoptosis in human GSC-3 cells assessed as viable cells at 20 uM incubated for 36 hrs by Annexin V-FITC/PI staining based flow cytometric analysis (reference value: 83.8%); assay type: functional; conditions: read-out: Activity
[13] = tested on: HEK-293T; assay: Cytotoxicity against human 293T cells assessed as reduction in cell viability after 72 hrs by MTS assay; assay type: cell-based; conditions: Homo sapiens, HEK-293T
[14] = tested on: GSC-18; assay: Antiproliferative activity against human GSC-18 cells assessed as inhibition of cell growth at 15 uM after 48 hrs by BrdU incorporation assay; assay type: functional, cell-based
[15] = Induction of apoptosis in human GSC-3 cells assessed as viable cells at 7.5 uM incubated for 36 hrs by Annexin V-FITC/PI staining based flow cytometric analysis (reference value: 83.8%); assay type: functional; conditions: read-out: Activity
[16] = tested on: GSC-3; assay: Induction of apoptosis in human GSC-3 cells assessed as increase in cleaved caspase 3 at 15 uM after 48 hrs by immunofluorescence assay; assay type: functional, cell-based
[17] = tested on: GSC-3; assay: Induction of apoptosis in human GSC-3 cells assessed as ROS accumulation at 4 to 12 uM after 3 hrs in presence of NAC by DCFH-DA assay; assay type: functional, cell-based; conditions: dose 4-12 µM
[18] = tested on: GSC-3; assay: Induction of apoptosis in human GSC-3 cells assessed as cell shrank at 20 uM; assay type: functional, cell-based
[19] = tested on: GSC-3; assay: Induction of apoptosis in human GSC-3 cells assessed as accumulation of ROS by measuring increase in NOX1 expression at 15 uM after 48 hrs by transcriptome analysis; assay type: functional, cell-based
[20] = Induction of apoptosis in human GSC-3 cells assessed as early apoptotic cells at 7.5 uM incubated for 36 hrs by Annexin V-FITC/PI staining based flow cytometric analysis (reference value: 6.99%); assay type: functional
[21] = Induction of apoptosis in human GSC-3 cells assessed as necrotic cells at 7.5 uM incubated for 36 hrs by Annexin V-FITC/PI staining based flow cytometric analysis (reference value: 1.42%); assay type: functional
[22] = Induction of apoptosis in human GSC-3 cells assessed as necrotic cells at 10 uM incubated for 36 hrs by Annexin V-FITC/PI staining based flow cytometric analysis (reference value: 1.42%); assay type: functional
[23] = Induction of apoptosis in human GSC-3 cells assessed as late apoptotic cells at 20 uM incubated for 36 hrs by Annexin V-FITC/PI staining based flow cytometric analysis (reference value: 7.79%); assay type: functional
[24] = tested on: GSC-3; assay: Induction of apoptosis in human GSC-3 cells assessed as reduction in Bcl-2 protein expression at 7.5 to 20 uM after 48 hrs by Western blotting analysis; assay type: functional, cell-based; conditions: dose 7.5-20 µM
[25] = Cytotoxicity against human GSC18 cells assessed as reduction in cell viability after 72 hrs by MTS assay; assay type: functional, cell-based, GSC-18; conditions: GSC18, 72 h
[26] = tested on: T98G; assay: Cytotoxicity against human T98G assessed as reduction in cell viability after 72 hrs by MTS assay; assay type: cell-based; conditions: Homo sapiens, T98G
[27] = tested on: GSC-18; assay: Induction of apoptosis in human GSC-18 cells assessed as increase in cleaved caspase 3 at 15 uM after 48 hrs by immunofluorescence assay; assay type: functional, cell-based
[28] = tested on: HEK-293T; assay: Induction of apoptosis in human 293T cells assessed as accumulation of ROS by measuring increase in NOX1 expression at 15 uM after 48 hrs by transcriptome analysis; assay type: functional, cell-based
[29] = tested on: GSC-18; assay: Induction of apoptosis in human GSC-18 cells assessed as cell shrank at 20 uM; assay type: functional, cell-based
[30] = tested on: GSC-18; assay: Cytotoxicity against human GSC18 cells assessed as inhibition of cell growth at 20 uM after 5 days; assay type: functional, cell-based; conditions: time 5.0 day
[31] = Induction of apoptosis in human GSC-3 cells assessed as necrotic cells at 20 uM incubated for 36 hrs by Annexin V-FITC/PI staining based flow cytometric analysis (reference value: 1.42%); assay type: functional
[32] = tested on: GSC-3; assay: Induction of apoptosis in human GSC-3 cells assessed as accumulation of ROS by measuring increase in NCF1 expression at 15 uM after 48 hrs by transcriptome analysis; assay type: functional, cell-based
[33] = tested on: GSC-3; assay: Cytotoxicity against human GSC3 cells assessed as inhibition of cell growth at 20 uM after 5 days; assay type: functional, cell-based; conditions: time 5.0 day
[34] = Induction of apoptosis in human GSC-3 cells assessed as late apoptotic cells at 7.5 uM incubated for 36 hrs by Annexin V-FITC/PI staining based flow cytometric analysis (reference value: 7.79%); assay type: functional
[35] = tested on: GSC-3; assay: Induction of apoptosis in human GSC-3 cells assessed as appearance of round and detached cells at 20 uM; assay type: functional, cell-based
[36] = tested on: HUVEC; assay: Cytotoxicity against HUVEC assessed as reduction in cell viability after 72 hrs by MTS assay; assay type: cell-based, Homo sapiens; conditions: Homo sapiens, HUVEC
[37] = Induction of apoptosis in human GSC-3 cells assessed as late apoptotic cells at 10 uM incubated for 36 hrs by Annexin V-FITC/PI staining based flow cytometric analysis (reference value: 7.79%); assay type: functional
[38] = tested on: HEK-293T; assay: Cytotoxicity against human 293T cells assessed as inhibition of cell growth at 20 uM after 5 days; assay type: cell-based; conditions: 120 h, time 5 day
[39] = tested on: GSC-3; assay: Inhibition of colony formation in human GSC-3 cells assessed as decrease in number of tumor spheres at 15 uM after 2 weeks by crystal violet staining based assay; assay type: functional, cell-based
[40] = tested on: HEK-293T; assay: Induction of apoptosis in human 293T cells assessed as accumulation of ROS by measuring increase in NCF1 expression at 15 uM after 48 hrs by transcriptome analysis; assay type: functional, cell-based
[41] = tested on: GSC-3; assay: Inhibition of colony formation in human GSC-3 cells assessed as tumor spheres damage at 15 uM after 2 weeks by crystal violet staining based assay; assay type: functional, cell-based
[42] = tested on: U-87 MG; assay: Inhibition of colony formation in human U-87 MG cells assessed as tumor spheres damage at 15 uM by crystal violet staining based assay; assay type: functional, cell-based; conditions: U-87MG ATCC
[43] = Induction of apoptosis in human GSC-3 cells assessed as viable cells at 10 uM incubated for 36 hrs by Annexin V-FITC/PI staining based flow cytometric analysis (reference value: 83.8%); assay type: functional; conditions: read-out: Activity
[44] = tested on: GSC-18; assay: Induction of apoptosis in human GSC-18 cells assessed as appearance of round and detached cells at 20 uM; assay type: functional, cell-based
[45] = tested on: T98G; assay: Inhibition of colony formation in human […] cells assessed as decrease in number of tumor spheres at 15 uM by crystal violet staining based assay; assay type: functional, cell-based
[46] = tested on: GSC-18; assay: Induction of apoptosis in human GSC-18 cells assessed as ROS accumulation at 4 to 12 uM after 3 hrs in presence of NAC by DCFH-DA assay; assay type: functional, cell-based; conditions: dose 4-12 µM
[47] = Induction of apoptosis in human GSC-3 cells assessed as early apoptotic cells at 20 uM incubated for 36 hrs by Annexin V-FITC/PI staining based flow cytometric analysis (reference value: 6.99%); assay type: functional

In the case of `CC1=C(CC[C@H](C)CO[C@@H]2O[C@H](CO)[C@@H](O)[C@H](O)[C@H]2O)O[C@H]2C[C@H]3[C@@H]4CC[C@@H]5C[C@@H](O[C@@H]6O[C@H](CO)[C@@H](O[C@@H]7O[C@@H](C)[C@H](O)[C@@H](O)[C@H]7O)[C@H](O)[C@H]6O[C@@H]6O[C@@H](C)[C@H](O)[C@@H](O)[C@H]6O)CC[C@]5(C)[C@H]4CC[C@]3(C)[C@@H]12`, the Activity [1] was 34.3%, the pIC50 [2] was under 4.00 and the Activity [3] was “Non-Toxic”. The inhibition [4] was “Active”, the Activity [5] was “Non-Toxic” and the pIC50 [6] was 5.15. For the same molecule, the Activity [7] was “Active”, the inhibition [8] was “Active” and the Activity [9] was “Active”. For the same molecule, the Activity [10] was “Active”, the Activity [11] was “Non-Toxic” and the viability at 20 µM [12] was 41.1%. The pIC50 [13] was under 4.00, the Activity [14] was “Active” and the viability at 7.5 µM [15] was 74.1%. For the same molecule, the Activity [16] was “Active”, the Activity [17] was “inactive” and the Activity [18] was “Active”. For the same molecule, the Activity [19] was “Active”, the Activity [20] was 19.4% and the Activity [21] was 1.01%. The Activity [22] was 0.69%, the Activity [23] was 5.03% and the Activity [24] was “Active”. For the same molecule, the pIC50 [25] was 5.18, the pIC50 [26] was under 4.00 and the Activity [27] was “Active”. The Activity [28] was “inactive”, the Activity [29] was “Active” and the Activity [30] was “Active”. For the same molecule, the Activity [31] was 0.56%, the Activity [32] was “Active” and the Activity [33] was “Active”. The Activity [34] was 5.46%, the Activity [35] was “Active” and the pIC50 [36] was under 4.00. For the same molecule, the Activity [37] was 4.67%, the Activity [38] was “Non-Toxic” and the inhibition [39] was “Active”. For the same molecule, the Activity [40] was “inactive”, the Activity [41] was “Active” and the Activity [42] was “Active”. For the same molecule, the viability at 10 µM [43] was 60.4%, the Activity [44] was “Active” and the inhibition [45] was “Active”. For the same molecule, the Activity [46] was “inactive” and the Activity [47] was 53.3%.
